From patent publication US12162879B2, “Pyridopyrimidine derivative, preparation method therefor and medical use thereof” (Jiangsu Hengrui Medicine Co., Ltd., priority 2018, dated 2024)

Tested on: peripheral blood mononuclear cells (PBMC)
Assay: Stimulation of IFNγ secretion from PBMC
Type: cell-based
Settings: minimum effective concentration, human PBMC, 24 hours
Method: The stimulating effect of the compounds of the present invention on the ability of secretion of IL12 and IFN γ from PBMC was determined by the following experimental method.
• 1. RMPI 1640 (Invitrogen, 11875); • 2. FBS (Gibco, 10099-141); • 3. Ficoll-Paque PREMIUM (GE, 17-5442-02); • 4. Trypan blue solution (Sigma, T8154-100 ML); • 5. SepMate™-50 (Stemcell, 15460); • 6. Bright-LineIM blood cell counter (Sigma, Z359629-1EA); • 7. 96-well cell culture plate (Corning, 3599); • 8. 96-well v-bottom plate (Corning, 3894); • 9. Human IL-12 ELISA kit (Neobioscience Technology Co., EHC152.96); • 10. Human IFN γ kit (cisbio, 62HIFNGPEG); and • 11. PHERAStar multi-function microplate reader (BMG, PHERAStar). II. Experimental Procedures
The compound was diluted with pure DMSO to a maximum concentration of 5 mM, and a total of 9 points were obtained by a 4-fold gradient dilution. 4 μl of the compound solution was then added to 196 μl of RMPI 1640 medium containing 10% FBS and mixed well. 50 μl of the mixture was taken and added to a 96-well cell culture plate.
All reagents were equilibrated to room temperature. 60 ml of blood from a healthy human and the same volume of PBS (containing 2% FBS) were added to a 250 ml culture flask, gently pipetted, mixed well and diluted. 15 ml of lymphocyte separation solution Ficoll-Paque PREMIUM was added to a 50 ml PBMC centrifuge tube SepMate™-50, followed by the addition of 30 ml of the above diluted blood. The mixture was centrifuged at 1200 g for 10 minutes at room temperature. The supernatant was taken and then centrifuged at 300 g for 8 minutes. The cells were re-suspended in the RMPI 1640 medium containing 10% FBS and counted, and the number of PBMCs was adjusted to 3.33×10^6 cells/ml. 150 μl of the cell solution was added to the plate containing the compounds, and incubated in an incubator at 37° C., 5.0% CO2 for 24 hours. The cell culture plate was placed in a centrifuge, and centrifuged at 1200 rpm for 10 minutes at room temperature. 150 μl of the supernatant was taken from each well.
The reagents in the Human IFN γ test kit were equilibrated to room temperature. The standard and detection antibody were prepared according to the kit's instruction under dark conditions. 16 μl of the supernatant obtained by centrifugation was added to each well, and 4 μl of freshly prepared mixed detection antibody was added to each well. The solution was mixed well by shaking, and incubated overnight in the dark at room temperature. The plate was read by the PHERAStar multi-function microplate reader.
The concentration of the compound that can stimulate PBMC to produce […] that is 3 times higher than the average value of the group without the compound (SD of the group without the compound) was defined as the minimum effective concentration (MEC) value of the compound.

| SMILES | IFNγ MEC [nM] |
| --- | --- |
| CCCC[C@](C)(CO)Nc1nc(N)nc2cc(-c3ccc(CN4CCCC4)nc3)cnc12 [Example 2, (R)-2-((2-Amino-7-(6-(pyrrolidin-1-ylmethyl)pyridin-3-yl)pyrido[3,2-d]pyrimidin-4-yl)amino)-2-methylhexan-1-ol] | 24 |
| CCCC[C@](C)(CO)Nc1nc(N)nc2cc(-c3ccc(C4CCN(C)CC4)nc3)cnc12 [Example 4, (R)-2-((2-Amino-7-(6-(1-methylpiperidin-4-yl)pyridin-3-yl)pyrido[3,2-d]pyrimidin-4-yl)amino)-2-methylhexan-1-ol] | 33 |
